Key:
Assay type in all cases: in vivo
[1] = test system: Grand Rapids Lettuce seeds (Waltham strain); experiment: Grand Rapids bioassay; settings: for Germination, Grand Rapids: compounds isolated from smoke, mean (SEM)
Protocol: Grand Rapids Lettuce seeds (Waltham strain) were obtained from R.B. Dessert Seed Co. and were frozen in sachets until use. For testing of aqueous samples, 2.5 mL of test solution was applied to three replicates of 40-50 seeds in Petri dishes (90 mm) lined with two layers of Whatman No. 1 filter paper (7 cm). Millipore filtered water (MP water) was used as a control for each experiment and dilutions of each sample were used to ensure the optimum concentration range for activity. Fractions were reconstituted to their original concentration (before fractionation) and dilutions were made using MP water. Petri dishes were sealed with a layer of plastic wrap, and stored in a light proof container. All manipulations involving the seed were carried out in a dark room and germinants, based on the appearance of a radicle, were scored after 48 hours incubation.

[2] = test system: Conostylis aculeata seeds; experiment: Native bioassay; settings: compounds isolated from smoke; mean (SEM)
Protocol: (§1) Conostylis aculeata and Stylidium affine seeds were obtained from Nindethana seed service and stored before use. For testing of aqueous samples, three replicates of 20-30 sterilised seeds were added to UV sterilised petri dishes (90 mm), containing two Whatman No. 1 filter papers (7 cm) moistened with the filtered test solution (2.5 mL, 0.22 μm). MP water was used as a control for each experiment and dilutions of each sample were used to ensure the optimum concentration range for activity. Petri dishes were then sealed with parafilm and incubated in the dark at 20±1° C. The seeds were scored on a weekly basis with optimum germination achieved between 4-6 weeks.

Stylidium affine seeds = experiment: Native bioassay; settings: compounds isolated from smoke; mean (SEM)
Protocol: as §1

[3] = 100 ppm, * = inhibits germination at this concentration

SMILES | Germination of formula (5) analogues ([1]; 1 ppm) | Germination of formula (5) analogues ([1]; 10 ppm) | Germination of formula (5) analogues ([1]; 100 ppb) | Germination of formula (5) analogues [1, 3] | Germination, Conostylis aculeata [2] | Germination, Stylidium affine (Stylidium affine seeds) [%] | Germination, Grand Rapids [1]
CC1=CC(=CC(=O)c2ccccc2)C=C(C)O1 [Compound 5c, 2-(2,6-dimethyl-4H-pyran-4-ylidene)-1-phenylethanone] | 54.3 (±3.1) | 69.3 (±4.4) | 53.2 (±4.1) | 74.1 (±6.7) | – | – | –
Cc1cc(=O)oc2ccoc12 [Compound L-3, 7-methyl-5H-furo[3,2-b]pyran-5-one] | – | – | – | – | 11.6 (2.5) % | 0 | 42.1 (1.5) %
O=C1C=C(c2ccco2)CO1 [Compound L-1, 2,3′-bifuran-5′(2′H)-one] | – | – | – | – | 7.5 (1.3) % | 0 | 42.4 (6.6) %
CCOC(=O)C(SC(C)=O)=C1C=COC=C1 [Compound 5b, ethyl 2-(acetylthio)-2-(4H-pyran-4-ylidene) acetate] | 64.7 (±4.5) | 82.6 (±3.4) | 54.3 (±7.2) | *39.4 (±2.7) | – | – | –
CCOC(=O)C=C1C=COC=C1 [Compound 5a, ethyl 2-(4H-pyran-4-ylidene) acetate] | 86.7 (±7.4) | 94.7 (±0.4) | 66.9 (±10.2) | 99.1 (±0.9) | – | – | –

Reference: US20070105721A1, “Vinylogous 4-Hpyrones and their use in promoting plant growth” (priority 2003, published 2007)
